Laboratory results as given in US20240101528A1, “SUBSTITUTED PYRAZOLO PIPERIDINE CARBOXYLIC ACIDS” (BAYER AKTIENGESELLSCHAFT, priority 2020, published 2024).
Where a name gives a salt, the structure may show the parent alone.

Target: T1, recombinant guanylate cyclase reporter cell line (Rattus norvegicus, UniProt P20595)
T1 construct: expressed in transfected cells
T1 sequence (P20595 1-619): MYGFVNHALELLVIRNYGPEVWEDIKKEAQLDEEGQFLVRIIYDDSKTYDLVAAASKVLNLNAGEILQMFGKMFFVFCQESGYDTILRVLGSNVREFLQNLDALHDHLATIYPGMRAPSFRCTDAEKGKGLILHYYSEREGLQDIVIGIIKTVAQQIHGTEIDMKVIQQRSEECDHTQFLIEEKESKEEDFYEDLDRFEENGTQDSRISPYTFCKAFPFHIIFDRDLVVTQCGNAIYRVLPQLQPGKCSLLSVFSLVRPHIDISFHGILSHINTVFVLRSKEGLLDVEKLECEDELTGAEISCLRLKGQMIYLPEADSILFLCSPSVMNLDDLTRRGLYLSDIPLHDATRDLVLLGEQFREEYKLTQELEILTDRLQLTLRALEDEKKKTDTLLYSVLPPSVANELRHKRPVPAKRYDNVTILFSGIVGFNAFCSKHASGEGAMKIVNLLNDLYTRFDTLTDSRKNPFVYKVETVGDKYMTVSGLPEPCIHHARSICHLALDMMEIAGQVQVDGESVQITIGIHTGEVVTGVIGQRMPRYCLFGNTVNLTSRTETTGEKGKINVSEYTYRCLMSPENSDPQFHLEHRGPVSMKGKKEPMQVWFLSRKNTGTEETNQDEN
T1 sequence (P19686 1-690 partner): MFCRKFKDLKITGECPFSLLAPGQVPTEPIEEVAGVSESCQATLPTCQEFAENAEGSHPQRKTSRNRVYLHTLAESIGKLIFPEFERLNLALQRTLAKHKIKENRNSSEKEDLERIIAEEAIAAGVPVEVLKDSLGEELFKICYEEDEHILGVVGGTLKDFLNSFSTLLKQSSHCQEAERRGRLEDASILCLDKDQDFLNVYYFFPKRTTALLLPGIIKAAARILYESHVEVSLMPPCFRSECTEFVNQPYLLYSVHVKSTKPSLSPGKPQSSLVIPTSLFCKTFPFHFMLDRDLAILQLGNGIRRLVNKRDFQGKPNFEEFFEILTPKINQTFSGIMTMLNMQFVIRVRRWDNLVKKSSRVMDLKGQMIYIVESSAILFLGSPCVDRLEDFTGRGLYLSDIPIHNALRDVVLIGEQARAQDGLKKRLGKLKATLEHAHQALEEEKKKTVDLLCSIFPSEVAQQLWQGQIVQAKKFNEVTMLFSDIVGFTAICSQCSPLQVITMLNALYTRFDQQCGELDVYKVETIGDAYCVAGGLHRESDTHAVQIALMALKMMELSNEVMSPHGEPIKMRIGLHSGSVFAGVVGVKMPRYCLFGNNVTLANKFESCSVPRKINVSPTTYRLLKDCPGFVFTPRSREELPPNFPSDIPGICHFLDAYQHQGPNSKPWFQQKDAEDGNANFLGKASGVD
Assay: Effect on a recombinant guanylate cyclase reporter cell line
Assay type: cell-based
Details: for EC50: half maximal effective concentration; for MEC: minimum effective concentration
Procedure: B-1. Effect on a Recombinant Guanylate Cyclase Reporter Cell Line
The cellular activity of the compounds according to the invention was determined using a recombinant guanylate cyclase reporter cell line, as described in F. Wunder et al., Anal. Biochem. 339, 104-112 (2005).

SMILES	EC50 [nM]	MEC [nM]
CC(=O)N1CCN(c2ccc(-c3ccc(Cl)cc3N3CCCC(n4ncc(C(=O)O)c4C(F)F)C3)cn2)CC1 (single isomer, unassigned; enantiomer 2) [Example 68, 1-(1-{2-[6-(4-Acetylpiperazin-1-yl)pyridin-3-yl]-5-chlorophenyl}piperidin-3-yl)-5-(difluoromethyl)-1H-pyrazole-4-carboxylic acid hydrochloride (Enantiomer 2)]	68	30.0
O=C(O)c1cnn(C2CCCN(c3cc(Cl)ccc3-c3ccc(C4CCN(C(=O)C5CC5)CC4)cc3)C2)c1C(F)F (single isomer, unassigned; enantiomer 2) [Example 57, 1-(1-{4-Chloro-4′-[1-(cyclopropylcarbonyl)piperidin-4-yl][biphenyl]-2-yl}piperidin-3-yl)-5-(difluoromethyl)-1H-pyrazole-4-carboxylic acid hydrochloride (Enantiomer 2)]	< 1	0.3
CC(C)CN1CCN(c2ccc(-c3ccc(Cl)cc3N3CC(n4ncc(C(=O)O)c4C(F)F)CC(F)(F)C3)cc2)CC1 (single isomer, unassigned; enantiomer 2) [Example 55, 1-{1-[4-Chloro-4′-(4-isobutylpiperazin-1-yl)[biphenyl]-2-yl]-5,5-difluoropiperidin-3-yl}-5-(difluoromethyl)-1H-pyrazole-4-carboxylic acid hydrochloride (Enantiomer 2)]	56.5	10.0
CCN1CCN(c2ccc(-c3ccc(C(F)(F)F)cc3N3CCCC(n4ncc(C(=O)O)c4C(F)F)C3)cc2)CC1 (single isomer, unassigned; enantiomer 1) [Example 73, 5-(Difluoromethyl)-1-{1-[4′-(4-ethylpiperazin-1-yl)-4-(trifluoromethyl)[biphenyl]-2-yl]piperidin-3-yl}-1H-pyrazole-4-carboxylic acid hydrochloride (Enantiomer 1)]	66	10.0
O=C(O)c1cnn(C2CCCN(c3cc(Cl)ccc3-c3ccc(C4CN(CCC(F)(F)F)C4)cc3)C2)c1C(F)F (single isomer, unassigned; enantiomer 2) [Example 59, 1-(1-{4-Chloro-4′-[1-(3,3,3-trifluoropropyl)azetidin-3-yl][biphenyl]-2-yl}piperidin-3-yl)-5-(difluoromethyl)-1H-pyrazole-4-carboxylic acid hydrochloride (Enantiomer 2)]	8.7	3.0
CC(C)CN1CCN(c2ccc(-c3ccc(Cl)cc3N3CCCC(n4ncc(C(=O)O)c4C(F)F)C3)cn2)CC1 (single isomer, unassigned; enantiomer 2) [Example 62, 1-(1-{5-Chloro-2-[6-(4-isobutylpiperazin-1-yl)pyridin-3-yl]phenyl}piperidin-3-yl)-5-(difluoromethyl)-1H-pyrazole-4-carboxylic acid hydrochloride (Enantiomer 2)]	7.5	3.0
O=C(O)c1cnn(C2CCCN(c3cc(Cl)ccc3-c3ccc(N4CCN(CCOC(F)(F)F)CC4)cc3)C2)c1C(F)F (single isomer, unassigned; enantiomer 2) [Example 26, 1-[1-(4-Chloro-4′-{4-[2-(trifluoromethoxy)ethyl]piperazin-1-yl}[biphenyl]-2-yl)piperidin-3-yl]-5-(difluoromethyl)-1H-pyrazole-4-carboxylic acid hydrochloride (Enantiomer 2)]	6.5	1.0
CC(C)N1CCN(c2ccc(-c3ccc(Cl)cc3N3CCCC(n4ncc(C(=O)O)c4C(F)F)C3)cc2)CC1 (single isomer, unassigned; enantiomer 2) [Example 6, 1-{1-[4-Chloro-4′-(4-isopropylpiperazin-1-yl)[biphenyl]-2-yl]piperidin-3-yl}-5-(difluoromethyl)-1H-pyrazole-4-carboxylic acid (Enantiomer 2)]	33.5	3.0
O=C(O)c1cnn(C2CCCN(c3cc(Cl)ccc3-c3ccc(N4CCN(C[C@H]5C[C@H]5F)CC4)cc3)C2)c1C(F)F (single isomer, unassigned; stereoisomer 2) [Example 37]	2.1	1.0
O=C(O)c1cnn(C2CCCN(c3cc(Cl)ccc3-c3ccc(N4CCN(CC5(C(F)(F)F)CC5)CC4)cc3)C2)c1C(F)F (single isomer, unassigned; enantiomer 2) [Example 40, 1-{1-[4-Chloro-4′-(4-{[1-(trifluoromethyl)cyclopropyl]methyl}piperazin-1-yl) [biphenyl]-2-yl]piperidin-3-yl}-5-(difluoromethyl)-1H-pyrazole-4-carboxylic acid hydrochloride (Enantiomer 2)]	11.8	1.0
O=C(O)c1cnn(C2CCCN(c3cc(Cl)ccc3-c3ccc(N4CCN(CC5CC5(F)F)CC4)cc3)C2)c1C(F)F (single isomer, unassigned; diastereomer 2) [Example 29, 1-{1-[4-Chloro-4′-(4-{[2,2-difluorocyclopropyl]methyl}piperazin-1-yl)[biphenyl]-2-yl]piperidin-3-yl}-5-(difluoromethyl)-1H-pyrazole-4-carboxylic acid hydrochloride (Diastereomer 2)]	2	0.3
O=C(O)c1cnn(C2CCCN(c3cc(Cl)ccc3-c3ccc(N4CCN(CC5CC5)CC4)cc3)C2)c1C(F)F (single isomer, unassigned; enantiomer 1) [Example 10, 1-[1-{4-Chloro-4′-[4-(cyclopropylmethyl)piperazin-1-yl][1,1′-biphenyl]-2-yl}piperidin-3-yl]-5-(difluoromethyl)-1H-pyrazole-4-carboxylic acid hydrochloride (Enantiomer 1)]	9.2	0.8
O=C(O)c1cnn(C2CCCN(c3cc(Cl)ccc3-c3ccc(N4CCN(CC5CC5C(F)(F)F)CC4)cc3)C2)c1C(F)F (mixture of isomers) [Example 39, 1-{1-[4-Chloro-4′-(4-{[cis-2-(trifluoromethyl)cyclopropyl]methyl}piperazin-1-yl) [biphenyl]-2-yl]piperidin-3-yl}-5-(difluoromethyl)-1H-pyrazole-4-carboxylic acid hydrochloride (Diastereomeric Mixture 2)]	14.5	1.0
CCN1CCN(c2ccc(-c3ccc(Cl)cc3N3CCCC(n4ncc(C(=O)O)c4C(F)F)C3)cc2)CC1 (single isomer, unassigned; enantiomer 1) [Example 3, 1-{1-[4-Chloro-4′-(4-ethylpiperazin-1-yl)[biphenyl]-2-yl]piperidin-3-yl}-5-(difluoromethyl)-1H-pyrazole-4-carboxylic acid hydrochloride (Enantiomer 1)]	24.6	3.0
O=C(O)c1cnn(C2CCCN(c3cc(Cl)ccc3-c3ccc(N4CCN(C(=O)[C@H]5C[C@H]5F)CC4)cc3)C2)c1C(F)F (single isomer, unassigned; stereoisomer 2) [Example 35]	11.3	2.0
